# Experimental data: patent US9546139B2, “Pyridine carboxylic acid based compound used as a P2X1 and P2X3 receptor antagonist, a production method for the same and a composition comprising the same” (GWANGJU INSTITUTE OF SCIENCE AND TECHNOLOGY, priority 2010, dated 2017)
# How the values were obtained:
# [1] = target: T1, mouse P2X1 receptor (Mus musculus, UniProt P51576); assay: Two-electrode voltage clamp, ATP-induced ion current in Xenopus oocytes expressing mouse P2X1; format: cell-based; settings: Table 2; 10 μM compound; ion current induced by 2 μM ATP; mean ± SEM, n = 4; read-out: % inhibition mP2X1
# T1 construct: EST clones containing full-length cDNAs of mouse P2X1 (clone ID: 4189541) and human P2X7 receptor (clone ID: 5286944); host or cells: Xenopus oocytes (cRNA injected)
# T1 sequence (P51576 1-399): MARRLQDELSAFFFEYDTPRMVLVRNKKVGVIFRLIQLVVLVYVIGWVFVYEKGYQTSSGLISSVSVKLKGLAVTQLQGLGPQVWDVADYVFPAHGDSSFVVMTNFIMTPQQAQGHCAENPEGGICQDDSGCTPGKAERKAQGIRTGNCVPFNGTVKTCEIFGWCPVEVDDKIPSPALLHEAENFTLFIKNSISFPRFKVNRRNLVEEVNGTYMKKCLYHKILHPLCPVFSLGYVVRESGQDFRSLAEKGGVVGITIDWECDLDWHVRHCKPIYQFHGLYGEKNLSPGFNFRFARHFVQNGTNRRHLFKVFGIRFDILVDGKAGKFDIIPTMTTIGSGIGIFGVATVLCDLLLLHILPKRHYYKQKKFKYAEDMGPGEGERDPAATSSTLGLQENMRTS
# Description: 1-1. Antagonistic Activity at Recombinant Mouse P2X1 and Human P2X3 Receptors
# (§1) Xenopus oocytes were harvested and prepared with method as previously described in publications. Defolliculated oocytes were injected cytosolically with mouse P2X1 and human P2X3 receptor cRNA ([…], 1 μg/mL), respectively, incubated for 24 hrs at 18° C. in Barth's solution and kept for up to 12 days at 4° C. until used in electrophysiological experiments. ATP-activated membrane currents (Vh=−70 mV) were recorded from cRNA-injected oocytes using the twin-electrode voltage-clamp technique (Axoclamp 2B amplifier). Voltage recording (1-2 MΩ tip resistance) and current-recording microelectrodes (5 MΩ tip resistance) were filled with 3.0 M KCl. Oocytes were held in an electrophysiological chamber and superfused with Ringer's solution (5 mL/min, at 18° C.) containing (mM) NaCl, 110; KCl, 2.5; HEPES, 5; BaCl2, 1.8, adjusted to pH 7.5. ATP was superfused over the oocytes for 60-120s then washed out for a period of 20 min. For inhibition curves, data were normalized to the current evoked by ATP, at pH 7.5. Test substances were added for 20 min prior to ATP exposure; all peptides were tested for reversibility of their effects. The concentration required to inhibit the ATP response by 50% (IC50) was taken from Hill plots constructed using the formula: log(I/Imax−1), where I is the current evoked by ATP in the presence of an antagonist. Data are presented as mean±SEM (n=4) for the data from different batches of oocytes.
# [2] = target: T2, human P2X7 receptor (Homo sapiens, UniProt Q99572); assay: Ethidium+ accumulation assay in human P2X7-expressing HEK293 cells; format: cell-based; settings: 10 μM compound, ethidium+ accumulation induced by 6 μM BzATP, n = 3
# T2 construct: EST clones containing full-length cDNAs of mouse P2X1 (clone ID: 4189541) and human P2X7 receptor (clone ID: 5286944); host or cells: HEK293
# T2 sequence (Q99572 1-595): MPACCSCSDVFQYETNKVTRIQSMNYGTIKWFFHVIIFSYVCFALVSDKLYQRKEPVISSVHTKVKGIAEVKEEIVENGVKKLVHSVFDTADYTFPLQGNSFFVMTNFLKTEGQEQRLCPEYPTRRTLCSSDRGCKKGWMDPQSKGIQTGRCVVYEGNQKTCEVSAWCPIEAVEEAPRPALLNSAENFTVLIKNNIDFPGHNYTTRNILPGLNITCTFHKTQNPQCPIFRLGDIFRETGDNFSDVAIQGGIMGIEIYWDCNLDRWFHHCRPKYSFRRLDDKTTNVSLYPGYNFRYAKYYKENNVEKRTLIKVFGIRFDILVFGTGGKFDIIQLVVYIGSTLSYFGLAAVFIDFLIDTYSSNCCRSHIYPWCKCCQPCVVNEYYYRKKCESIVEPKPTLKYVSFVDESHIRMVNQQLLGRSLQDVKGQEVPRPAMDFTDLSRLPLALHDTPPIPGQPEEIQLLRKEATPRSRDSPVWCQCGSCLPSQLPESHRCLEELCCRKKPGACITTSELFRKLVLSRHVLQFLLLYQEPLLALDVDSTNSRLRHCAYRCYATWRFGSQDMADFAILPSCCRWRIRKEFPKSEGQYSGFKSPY
# Description: 1-2. Ethidium^+ Accumulation Assay at Human P2X7 Receptors
# Human P2X7-expressing HEK293 cells were grown as monolayer culture at 37° C. in a humidified atmosphere of 5% CO2, DMEM supplemented with 10% fetal bovine serum. Cells were harvested with treatment of Trypsin/EDTA solution, collected by centrifugation (200 g for 5 min).
# The cells were resuspended at 2.5×10^6 cells/mL in assay buffers, consisting of (in mM) HEPES 10, KCl 140, glucose 5, EDTA 1 (pH 7.4), and then ethidium bromide (100 μM) was added. Cell suspensions were added to 96 well plates containing the P2X7 receptor agonist, ATP or BzATP, at 2×10^5 cells/wells. Plates were incubated at 37° C. for 120 min and cellular accumulation of ethidium^+ was determined by measuring fluorescence with Bio-Tek instrument FL600 fluorescent plate reader (excitation wavelength of 530 nm and emission wavelength of 590 nm). When the effects of antagonists, such as PPADS, KN62, and test peptides were studied, antagonists were treated together with agonist without pre-incubation.
# [3] = target: T3, human P2X3 receptor (Homo sapiens, UniProt P56373); assay: Two-electrode voltage clamp, ATP-induced ion current in Xenopus oocytes expressing human P2X3; format: cell-based; settings: Table 2; 10 μM compound; ion current induced by 2 μM ATP; mean ± SEM, n = 4; read-out: % inhibition hP2X3
# T3 construct: expressed in transfected cells; host or cells: Xenopus oocytes (cRNA injected); cDNA from the Max-Planck Institute laboratory (Dr. W. Stuhmer and Dr. F. Soto)
# T3 sequence (P56373 1-397): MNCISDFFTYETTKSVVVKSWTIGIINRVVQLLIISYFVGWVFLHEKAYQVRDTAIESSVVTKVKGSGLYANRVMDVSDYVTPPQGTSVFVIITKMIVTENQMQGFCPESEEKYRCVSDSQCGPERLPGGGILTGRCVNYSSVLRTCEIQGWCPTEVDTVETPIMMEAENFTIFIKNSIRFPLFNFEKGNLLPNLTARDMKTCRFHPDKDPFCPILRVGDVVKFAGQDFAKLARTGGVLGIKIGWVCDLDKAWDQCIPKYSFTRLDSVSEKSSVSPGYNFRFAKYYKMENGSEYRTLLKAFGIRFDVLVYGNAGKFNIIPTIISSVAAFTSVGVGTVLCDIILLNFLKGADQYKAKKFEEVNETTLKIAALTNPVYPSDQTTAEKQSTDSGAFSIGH
# Description: Antagonistic Activity at Recombinant Mouse P2X1 and Human P2X3 Receptors
# as §1
# [4] = tested on: P2 receptor; settings: conventional antagonist, stated shortcoming; cited from earlier work
SMILES,inhibition at 10 µM [1],% inhibition hP2X7 [2],inhibition at 10 µM [3],reversibility of blocking activity [4]
"COc1ccc(CCc2nc(C)c(O)c(C=O)c2/C=C/C(=O)O)cc1 [Compound 64, (E)-3-(4-formyl-5-hydroxy-2-(4-methoxyphenethyl)-6-methylpyridin-3-yl)acrylic acid]",51.4 ± 4.8%,inactive,69.4 ± 7.5%,
"COc1ccc(CCc2nc(C)c(O)c(C=O)c2C(=O)O)cc1 [Compound 67, 4-formyl-5-hydroxy-2-(4-methoxyphenethyl)-6-methylnicotinic acid]",52.8 ± 5.6%,inactive,72.6 ± 4.3%,
"Cc1nc(N=Nc2ccc(S(=O)(=O)O)cc2S(=O)(=O)O)c(COP(=O)(O)O)c(C=O)c1O [PPADS, pyridoxalphosphate-6-azophenyl-2′,4′-disulphonic acid]",,,,irreversible blocking activity
